Test results from patent US20070282004A1, “Use of a Cyclopentenone Prostaglandin for Delaying for the Onset and/or Preventing the Continuation of Labour” (Imperial College Innovations Limited, priority 2003, published 2007).
One block for each compound: values may come before it. Residues, ends and D or L forms follow the SMILES beside them. *: point of attachment. Cbz = O=C(OCc1ccccc1)*

Key:
NF-κB [1] = assay: NF-κB-dependent luciferase reporter (κB.BG.Luc) in myometrial cells; type: cell-based, human; conditions: treated 2 h, IL-1β 1 ng/ml 6 h
Method: Myometrial cells were transiently transfected with the NFκB-dependent reporter construct κB.BG.Luc, treated with 15dPGJ2 or vehicle for 2 h, ±IL-1β (1 ng/ml) for 6 h. […] Values are normalised for b-gal reporter activity. (NS=nonstimulated).
Myometrial cells were transfected with […] κB.BG.Luc reporter and 200 ng PPAR-γ expression vector and treated with 15d-PGJ2 for 2 h followed by IL-1β (1 ng/ml) for 6 h. Values are normalised for β-galactosidase reporter activity. (NS=nonstimulated).
(§1) Myometrial tissue was collected at term from the upper margin of uterine incision at the time of lower segment caesarean section either prior to the onset of labour (L−) or […] (L+). L+ samples were collected by Dr Mark Johnson and Dr S Soorrana at Chelsea & Westminster Hospital. Myometrial tissue was dissected, rinsed in PBS, and digested in serum-free DMEM containing 15 mg/ml collagenase 1A (Sigma), 15 mg/ml collagenase X, and 50 mg/ml bovine serum albumin for 45 min at 37° C. The cell suspension was filtered through a cell strainer, centrifuged at 400 g for 5 min, and the pellet re-suspended and plated out in DMEM, 10% FCS (Helena BioScience), 1% L-glutainine, 1% penicillin-streptomycin. Cells were used between passage numbers 1-4.
pGL3.6κB.BG.luc: a NF-κB-dependent reporter construct with 6 copies of the NF-κB binding site.
Cells were co-transfected with the renilla vector pRL-CMV or β-galactosidase vector pCH110 as internal controls for transfection efficiencies.

NF-κB [2] = biological target: T1, NF-κB (Homo sapiens, UniProt P19838+Q04206); assay: EMSA of NF-κB DNA binding in nuclear extracts of treated myometrial cells; type: cell-based; conditions: myometrial cells; for IL-1β-induced NF-κB DNA binding (EMSA): then IL-1β 15 min; for Stimulation of NF-κB activity / induction of NFκB DNA binding by the compound alone: no cytokine
T1 construct: nuclear protein extracts from myometrial cells; endogenous in cells; host or cells: primary human myometrial cells (term, passage 1-4)
T1 sequence (Q04206 whole entry): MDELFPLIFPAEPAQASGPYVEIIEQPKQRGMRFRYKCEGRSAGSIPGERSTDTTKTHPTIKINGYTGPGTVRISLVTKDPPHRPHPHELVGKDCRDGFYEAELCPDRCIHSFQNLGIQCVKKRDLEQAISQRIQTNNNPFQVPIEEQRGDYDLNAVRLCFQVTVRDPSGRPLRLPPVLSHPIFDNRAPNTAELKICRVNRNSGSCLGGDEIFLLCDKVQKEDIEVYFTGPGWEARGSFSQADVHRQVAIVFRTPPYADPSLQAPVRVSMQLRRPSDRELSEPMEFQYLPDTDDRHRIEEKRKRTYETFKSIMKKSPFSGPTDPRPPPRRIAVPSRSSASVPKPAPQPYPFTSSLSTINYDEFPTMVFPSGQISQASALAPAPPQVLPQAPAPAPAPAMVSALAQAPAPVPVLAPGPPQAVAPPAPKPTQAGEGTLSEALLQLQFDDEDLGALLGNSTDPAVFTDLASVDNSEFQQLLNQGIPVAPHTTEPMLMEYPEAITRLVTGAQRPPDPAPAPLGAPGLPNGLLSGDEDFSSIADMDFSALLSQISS
T1 sequence (P19838 1-433 limits assumed): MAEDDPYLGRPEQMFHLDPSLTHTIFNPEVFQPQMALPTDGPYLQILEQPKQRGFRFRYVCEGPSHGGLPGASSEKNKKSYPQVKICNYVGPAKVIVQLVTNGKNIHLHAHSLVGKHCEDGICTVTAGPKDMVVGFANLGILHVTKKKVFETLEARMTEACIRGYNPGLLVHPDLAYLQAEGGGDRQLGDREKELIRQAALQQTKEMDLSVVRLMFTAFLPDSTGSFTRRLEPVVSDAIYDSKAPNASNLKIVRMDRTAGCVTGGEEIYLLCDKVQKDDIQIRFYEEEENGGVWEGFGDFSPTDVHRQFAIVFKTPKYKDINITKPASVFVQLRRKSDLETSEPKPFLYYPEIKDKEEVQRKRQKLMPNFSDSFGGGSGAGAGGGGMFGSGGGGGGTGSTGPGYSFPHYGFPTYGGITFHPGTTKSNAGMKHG
Method: as §1
(§2) Nuclear and cytosolic protein extracts were obtained from cultured amnion cells as described by Schreiber et al (1989). For nuclear/cytosolic fractionation, confluent cell monolayers were scraped and lysed using a buffer containing 10 mM HEPES, 10 mM KCl, 0.1 mM EDTA, 0.1 mM EGTA, 2 mM DTT, 1% (v/v) NP-40 and complete protease inhibitor tablets (CPIs, Roche), diluted to manufacturer's instructions. Cell lysates were incubated on ice for 10 min and NP-40 added to a final concentration of 1% (v/v). Lysates were vortexed for 10 secs and centrifuged for 30 secs at 4° C., 12000 g. The supernatants were retained as the cytosolic protein extracts. The pellets were resuspended in buffer containing 10 mM HEPES, 10 mM KCl, 0.1 mM EDTA, 0.1 mM EGTA, 2 mM DTT, 400 mM NaCl, 1% NP-40 (v/v) and CPIs. Samples were shaken vigorously for 15 min in an ice bath. The nuclear protein extracts were obtained in the supernatant following a 5 min centrifugation at 4° C., 12000 g.
(§3) Sense and antisense strands (175 nmole/ml each) were incubated in annealing buffer (10 mM Tris-HCl pH7.5, 100 mM NaCl, 1 mM EDTA) for 10 min at 65° C., and allowed to cool at room temperature for 2 h. 3.5 pmole double-stranded oligonucleotides were end-labelled with 0.37 MBq ^32P(γATP) by incubating for 30 min at 37° C. with T4 polynucleotide kinase. Labelled oligonucleotides were recovered by centrifugation at 3000 rpm for 2 min through MicroSpin G-25 or G-50 sephadex columns (Amersham Biosciences).
(§4) 3-5 μg protein extracts were incubated on ice for 1 h with non-radiolabelled non-specific oligonucleotide (poly(dI-dC) or Oct-1) in a binding buffer (20% (v/V) glycerol, 5 mM MgCl2, 2 mM EDTA, 50 mM Tris-HCl pH7.5, 250 mM NaCl, 2 mM DTT), followed by a 45 min incubation with 0.035 pmole ^32P(γ(ATP)-end labelled oligonucleotide probes:
(§5) Oct-1 or SP-1 consensus sequences were used as a controls for a NF-κB-specific effect. The resulting protein/DNA complexes were separated in a 4% acrylamide gel, the gel dried under vacuum at 80° C. and exposed to X-ray film. For supershift analysis, samples were incubated with 2 μg antibodies for 30 min on ice prior to incubation with oligonucleotides. Non-radio-labelled oligonucleotides were used at 100-fold molar excess for specific and non-specific competition for DNA binding. Reagents for EMSA were obtained from Promega Life Sciences, Delta House, Chilworth Research Centre, Southampton SO16 7NS, United Kingdom.

NF-κB [3] = assay: Western immunoblot of p65, p50, IκB in myometrial cell extracts; type: cell-based, human; conditions: myometrial cells, IL-1β 15 min
Method: (§6) Western immunoblots of nuclear or cytosolic protein extracts from (A) myometrial cells, (B) L− amnion cells, and (C) L+ amnion cells treated with 15dPGJ2 or vehicle for 2 h±IL-1β stimulation (15 min). Blots probed with antibodies against p65, p50 or IκBα.
Western immunoblots of nuclear or cytosolic protein extracts from myometrial cells treated with PGA1 or vehicle for 2 h followed by IL-1β stimulation (15 min). Blots probed with antibodies against p65 or IκBa.
Western immunoblots of cytosolic extracts from myometrial cells (A) treated with 15dPGJ2 for 2h±IL1b for 15 min; probed for IKK, and (B) treated with […] 15dPGJ2, […] MG132 or vehicle for 2 h, ±IL-1β for 15 min; probed for IκBα.
(A) NF-κB-DNA binding was measured by EMSA in nuclear protein extracts from myometrial cells pre-treated with vehicle, 15d-PGJ2 or PGA1 for 2 h, followed by stimulation with IL-1β (1 ng/ml) for 15 min. Antibodies against p50 and p65 were used for supershift analysis. (B) Myometrial cells were transiently transfected with a NF-κB-LUC reporter and a β-gal reporter plasmid, pre-treated with vehicle or PGA1 for 2 h, and stimulated with IL-1β (1 ng/ml) for 6 h. Luciferase activity was normalized for β-gal reporter readout. Values are presented as the mean±SEM obtained for each treatment done in triplicate. Western blot analysis of nuclear p65 and p50 expression in myometrial cells treated with (C) PGA1 or (D) 15d-PGJ2 for 2 h, followed by stimulation with IL-1β (1 ng/ml) for 15 min. (E) Western blot analysis of whole cell lysates from myometrial cells treated with 15d-PGJ2 or 9,10-dihydro-15d-PGJ2 for 2 h, followed by stimulation with IL-1β (1 ng/ml) for 15 min. Membranes were probed with antibodies against p65 and Ser 536-phosphorylated p65.
as §1, §2
Protein samples (20-70 μg) were mixed with Laemmli sample buffer (1:1) containing β-mercaptoethanol (5%), and boiled for 5 min. Proteins were then separated by SDS-PAGE (12-14% gels) and transferred onto PVDF membrane (Amersham Pharmacia Biotech). The membranes were blocked overnight in 5% non-fat milk prepared in PBS-T buffer, at 4° C. The blots were incubated with the primary antibody in 1% non-fat milk in PBS-T buffer for 1 h, and washed three times (10 min each) in PBS-T with vigorous shaking. […]

PPAR-γ = biological target: T2, PPAR-γ (Homo sapiens, UniProt P37231); conditions: as stated from the literature; cited from earlier work
T2 sequence (P37231 1-505): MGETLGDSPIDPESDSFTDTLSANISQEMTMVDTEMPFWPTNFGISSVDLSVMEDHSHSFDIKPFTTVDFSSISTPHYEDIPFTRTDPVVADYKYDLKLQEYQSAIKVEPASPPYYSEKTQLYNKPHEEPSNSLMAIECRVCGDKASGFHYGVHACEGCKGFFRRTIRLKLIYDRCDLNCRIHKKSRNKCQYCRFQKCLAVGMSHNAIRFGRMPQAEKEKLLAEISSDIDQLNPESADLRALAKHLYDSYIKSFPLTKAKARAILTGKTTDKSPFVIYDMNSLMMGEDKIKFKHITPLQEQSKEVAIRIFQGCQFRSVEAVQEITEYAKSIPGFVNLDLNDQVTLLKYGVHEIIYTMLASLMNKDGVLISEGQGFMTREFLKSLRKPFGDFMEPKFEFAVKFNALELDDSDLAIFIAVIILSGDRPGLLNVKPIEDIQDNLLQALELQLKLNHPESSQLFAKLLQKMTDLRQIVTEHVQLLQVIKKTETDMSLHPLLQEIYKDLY

NF-κB [4] = biological target: T1, NF-κB; assay: EMSA of NF-κB DNA binding in nuclear extracts of treated amnion cells; type: cell-based
Method: (§7) Placentae were obtained from patients at term either at elective Caesarean section prior to labour (L−) or following spontaneous labour onset and vaginal delivery (L+). Amnion cells were prepared as described in Bennett et al., (1989). Briefly, the amnion was separated from the placenta, washed 3× in PBS, cut into strips, and incubated in 0.5 mM EDTA in PBS for 15 min. The strips were washed in PBS 2× and digested with 2.5 mg/ml dispase in serum-free DMEM for 35 min at 37° C. The amnion was then shaken vigorously in DMEM, 10% FCS to dissociate the cells, the remaining strips discarded, and the cell suspension pelleted at 175 g for 10 min and cultured in DMEM, 10% FCS (Sigma), 1% L-glutamine, 1% penicillin-streptomycin.
as §2, §3, §4, §5

NF-κB [5] = assay: Western immunoblot of p65, p50, IκB in amnion cell extracts; type: cell-based, human; conditions: L−, L+ amnion cells, treated 2 h, IL-1β 15 min
Method: as §6, §7, §2
Protein samples (20-70 μg) were mixed with Laemmli sample buffer (1:1) containing β-mercaptoethanol (5%), and boiled for 5 min. Proteins were then separated by SDS-PAGE (12-14% gels) and transferred onto PVDF membrane (Amersham Pharmacia Biotech). The membranes were blocked overnight in 5% non-fat milk prepared in PBS-T buffer, at 4° C. The blots were incubated with the primary antibody in 1% non-fat milk in PBS-T buffer for 1 h, and washed three times (10 min each) in PBS-T with vigorous shaking. The blots were then incubated with HRP-conjugated secondary antibody (diluted 1:2000 in 1% non-fat milk in PBS-T buffer) for 1 h and washed three times (10 min each) in PBS-T. Signal detection was achieved using enhanced chemi-luminescence (ECL plus system, Amersham Pharmacia Biotech) according to manufacturer's instructions.
30-50 μg protein extracts were subjected to SDS-PAGE and Western immuno-blotting. Secondary antibodies were IgG-HRP and ECL Plus detection kit (Amersham Pharmacia Biotech, Amersham Place, Little Chalfont, Bucks, HP7 9NA) was used for visualisation.

[6] = tested on: contractions of pre-term labour; conditions: people; cited from earlier work
[7] = tested on: ductus arteriosus, fetal urine output; conditions: in vivo; cited from earlier work
NF-κB [8] = assay: NF-κB-dependent luciferase reporter (κB.BG.Luc) in myometrial cells; type: cell-based, human; conditions: 200 ng PPAR-γ expression vector, 10 mM troglitazone 7 h, IL-1β 17 h

IL-1β-induced NF-κB DNA binding (EMSA) (NF-κB [2]; treated 2 h): failed to inhibit
Structure (SMILES): CN(CCOc1ccc(C[C@H](Nc2ccccc2C(=O)c2ccccc2)C(=O)O)cc1)c1ccccn1 [GW1929, reference compound]
IL-1β-induced NF-κB transcriptional activity (κB.BG.Luc reporter) (NF-κB [1]): does not inhibit

Structure (SMILES): CCCCCC=CC=C1CCC(=O)C1CC=CCCCC(=O)O (centres unmarked) [9,10-dihydro-15d-PGJ2, 9,10-di-hydro-15-deoxy-Δ^12,14-Prostaglandin J2, reference compound]
Reproduction of the effects of 15d-PGJ2 on NF-κB (incl. Ser 536-phosphorylated p65) (NF-κB [3]; 2 h, similar in amnion epithelial cells): could not reproduce the effects
PPAR agonist / ligand activity (PPAR-γ): retains PPARγ agonist activity

IL-1β-induced NF-κB DNA binding (EMSA) (NF-κB [4]; L− and L+ amnion cells, treated 2 h, then IL-1β 15 min): did not inhibit
Synergy with IL-1β or TNFα on NF-κB activity (NF-κB [2]): nor did it synergise
Stimulation of NF-κB activity / induction of NFκB DNA binding by the compound alone (NF-κB [2]): neither did it stimulate
IL-1β-induced NF-κB DNA binding (EMSA) (NF-κB [2]; treated 2 h): did not inhibit
Structure (SMILES): CCCCC(C)(C)[C@H](O)/C=C/[C@H]1[C@H](O)CC(=O)[C@@H]1C/C=C\CCCC(=O)O [16,16-Dimethyl-PGE2, reference compound]
IL-1β-induced p65 nuclear translocation (NF-κB [3]; treated 2 h): did not inhibit
IL-1β-induced p65 nuclear translocation (NF-κB [5]): did not inhibit

Structure (SMILES): CC1=C(CC(=O)O)c2cc(F)ccc2/C1=C\c1ccc([S+](C)[O-])cc1 (centres unmarked) [Sulindac]
Tocolytic efficacy [6]: equally good
Effect on ductal patency [7]: minimal effect
Fetal urine output [7]: smaller reduction

Structure (SMILES): COc1ccc2c(c1)c(CC(=O)O)c(C)n2C(=O)c1ccc(Cl)cc1 [Indomethacin]
Tocolytic efficacy [6]: effective in preventing the contractions

Structure (SMILES): Cc1c(C)c2c(c(C)c1O)CCC(C)(COc1ccc(CC3SC(=O)NC3=O)cc1)O2 (centres unmarked) [troglitazone]
NF-κB-dependent reporter in PPARγ-transfected cells (NF-κB [8]): does not inhibit

Induction of NFκB DNA binding by the compound alone (NF-κB [4]; L− amnion cells, no cytokine): does not induce
Stimulation of NF-κB activity / induction of NFκB DNA binding by the compound alone (NF-κB [2]): does not induce
TNFα- and IL-1β-induced NFκB activation (EMSA, nuclear p65) (NF-κB [2]; treated 2 h, TNFα or IL-1β 15 min): does not inhibit
Structure (SMILES): CCCCC[C@H](O)/C=C/[C@H]1[C@H](O)CC(=O)[C@@H]1C/C=C\CCCC(=O)O [PGE2, prostaglandin E2, reference compound]
PPAR agonist / ligand activity (PPAR-γ): does not activate PPAR-γ

Structure (SMILES): CC(C)C[C@@H](C=O)NC(=O)[C@H](CC(C)C)NC(=O)[C@H](CC(C)C)NC(=O)OCc1ccccc1 [MG132, reference compound] (Cbz-Leu-Leu-Leu-aldehyde)
Accumulation of phosphorylated IκBα (NF-κB [3]; 2 h): resulted in the accumulation
